We go through 21 molecules from US10106515B2, “1-(cyclopent-2-en-1-yl)-3-(2-hydroxy-3-(arylsulfonyl)phenyl)urea derivatives as CXCR2 inhibitors” (GLAXOSMITHKLINE INTELLECTUAL PROPERTY DEVELOPMENT LIMITED, priority 2014, dated 2018).

Counter-ions that a name gives are not always drawn.

One experiment concerns the target T1, recombinant human CXCR2 (Homo sapiens, UniProt P25025).
T1 construct: TEV protease site; Gal4-VP16 transcription factor
T1 sequence (P25025 1-360): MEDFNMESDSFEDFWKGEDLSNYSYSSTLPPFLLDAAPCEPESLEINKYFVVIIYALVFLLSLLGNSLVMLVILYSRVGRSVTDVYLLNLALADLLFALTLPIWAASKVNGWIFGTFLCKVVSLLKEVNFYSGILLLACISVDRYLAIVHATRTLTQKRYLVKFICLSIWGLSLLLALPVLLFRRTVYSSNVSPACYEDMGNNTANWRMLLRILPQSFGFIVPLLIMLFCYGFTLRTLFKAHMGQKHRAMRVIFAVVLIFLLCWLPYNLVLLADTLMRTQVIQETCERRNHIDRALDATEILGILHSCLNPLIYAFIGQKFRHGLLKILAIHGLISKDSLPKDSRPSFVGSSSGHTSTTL
Kind of experiment: CXCR2 Tango assay. Particulars: mean pIC50 of multiple test results; stimulated with 80 nM hCXCL1; reporter gene blue/green emission ratio; read-out: pIC50 (CXCR2 Tango assay) (converted). Type of experiment: cell-based. Put shortly:
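A stable cell line carries human CXCR2 fused to a TEV site and Gal4-VP16, with protease-tagged arrestin. Cells (~10,000/well) were stimulated overnight at 37 °C with 80 nM hCXCL1 and a 10-point compound dilution. CCF4-AM beta-lactamase FRET (460/530 nm ratio) was read, normalized to hCXCL1 and DMSO, and mean pIC50 reported.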
For orientation: In a reporter assay the amount or activity of a reporter protein is the signal.

In experiment [1] the test system is upregulation of CD11b in GROα stimulated neutrophils in human whole blood. Put plainly: Human whole blood assay (CD11b upregulation). Type of experiment: cell-based. The following applies: Neutrophil, inhibition of CD11b upregulation, GROα 33 nM final, flow cytometry, read-out: pIC50 (human whole blood assay) (converted). The method, then:
The whole blood assay tested the compounds' ability to inhibit the upregulation of CD11b in GROα stimulated neutrophils in human whole blood.
Blood was withdrawn by venipuncture from consented adults and poured into a Sterilin tube containing an anti-coagulant Heparin (10 uL/mL of blood). All the test compounds were dissolved in DMSO to 4 mM and serial diluted across the plate, 1 in 3 to provide 10 point dose response curves. The compounds were then diluted 100 fold in -PBS [Phosphate buffered saline (without Calcium Chloride and Magnesium Chloride)] after which, 1 uL was dispensed in 96 U bottom Costar plates using an FX.
10 uL of blood was transferred to the compound plate using a multi-channel pipette, gently tapped and incubated for 15 minutes, at 37° C. After 15 minutes, the stimulant GROα was diluted to 100 nM in 0.1% BSA (Albumin Bovine Serum)-PBS and 5 uL is dispensed across the whole plate for a final concentration of 33 nM. The plate was gently tapped and incubated further for 15 minutes at 37° C. The plate was placed on ice for 1 minute before addition of 10 uL of an antibody cocktail consisting of CD11b-FITC (40 ug/mL) purchased from BioLegend (address: Cambridge Bioscience, Munro House, Trafalgar Way, Bar Hill, Cambridge, UK) and CD16-PE purchased from BD Pharmingen (address: The Danby Building, Edmung Halley Road, Oxford Science Park, Oxford, UK) (stock concentration 100 tests, 2 mL stock volume is diluted 1 in 5). The plate was placed on ice for 1 hour in the dark. The cells were then fixed using 200 uL/well of 1×FACS (Flow Activated Cell Sorting) Lyse solution (Becton and Dickinson-BD) and on ice for 20 minutes in the dark. The plate was centrifuged at 1600 rpm for 5 minutes and re-suspended with 200 uL of ice cold PBS. This step was repeated twice and on the final step the plate was re-suspended with 50 uL of ice cold -PBS for flow Cytometric analysis.
Samples were run on a Becton and Dickinson (BD)-Acurri C6 Flow Cytometer using a HyperCyt sampling apparatus (IntelliCyt) with a flow rate 2 uL/sec. CD11b upregulation is monitored in neutrophils and identified using a combination of both side scatter and CD16 expression.

On to `CC1=CCCC1NC(=O)Nc1ccc(Cl)c(S(=O)(=O)C2(C)CCOCC2)c1O` (centres unmarked) [Compound 107, 1-(4-chloro-2-hydroxy-3-((4-methyltetrahydro-2H-pyran-4-yl)sulfonyl)phenyl)-3-(2-methylcyclopent-2-en-1-yl)urea], for which the values for the IC50 (at recombinant human CXCR2; in experiment [1]) were not above 10 nM and 25.1 to 2510 nM, respectively. In the case of `CCC1(S(=O)(=O)c2c(Cl)ccc(NC(=O)N[C@@H]3CCC=C3C)c2O)CCOCC1` [Compound 119, (R)-1-(4-chloro-3-((4-ethyltetrahydro-2H-pyran-4-yl)sulfonyl)-2-hydroxyphenyl)-3-(2-methylcyclopent-2-en-1-yl)urea], the IC50 at recombinant human CXCR2 was not above 1 nM; in experiment [1] it was 25.1 to 2510 nM. Consider `CC1=CCC[C@H]1NC(=O)Nc1ccc(Cl)c(S(=O)(=O)[C@H]2C[C@H](N3CC[C@@H](F)C3)C2)c1O` [Compound 49, trans-1-(4-chloro-3-((3-((R)-3-fluoropyrrolidin-1-yl)cyclobutyl)sulfonyl)-2-hydroxyphenyl)-3-((R)-2-methylcyclopent-2-en-1-yl)urea, trifluoroacetic acid salt], for which the values for the IC50 (at recombinant human CXCR2; in experiment [1]) were not above 1 nM and 25.1 to 2510 nM, respectively.

As to `CC1=CCC[C@H]1NC(=O)Nc1ccc(Cl)c(S(=O)(=O)n2ccc3cccnc32)c1O` [Compound 90, (R)-1-(3-((1H-pyrrolo[2,3-b]pyridin-1-yl)sulfonyl)-4-chloro-2-hydroxyphenyl)-3-(2-methylcyclopent-2-en-1-yl)urea], the IC50 on recombinant human CXCR2 is not above 1 nM; in experiment [1], 25.1 to 2510 nM. Consider `COCC(C)S(=O)(=O)c1c(Cl)ccc(NC(=O)N[C@@H]2CCC=C2C)c1O` (stereo partly drawn) [Compound 158, 1-(4-chloro-2-hydroxy-3-((1-methoxypropan-2-yl)sulfonyl)phenyl)-3-((R)-2-methylcyclopent-2-en-1-yl)urea], for which the IC50 at recombinant human CXCR2 is not above 10 nM; in experiment [1], 25.1 to 2510 nM. Consider `CC1=CCC[C@H]1NC(=O)Nc1ccc(C#N)c(S(=O)(=O)C(C)(C)C)c1O` [Compound 191, (R)-1-(3-(tert-butylsulfonyl)-4-cyano-2-hydroxyphenyl)-3-(2-methylcyclopent-2-en-1-yl)urea], for which the IC50 was not above 1 nM on recombinant human CXCR2 and 25.1 to 2510 nM in experiment [1]. Taken in the same sequence, the figures for `CC1=CCCC1NC(=O)Nc1ccc(Cl)c(S(=O)(=O)N2CCC(F)(F)C2)c1O` (centres unmarked) [Compound 114, 1-(4-chloro-3-((3,3-difluoropyrrolidin-1-yl)sulfonyl)-2-hydroxyphenyl)-3-(2-methylcyclopent-2-en-1-yl)urea, trifluoroacetic acid salt] were not above 10 nM and 25.1 to 2510 nM. On to `CC1=CCC[C@H]1NC(=O)Nc1ccc(Cl)c(S(=O)(=O)C(C)c2ncccn2)c1O` (stereo partly drawn) [Compound 27, 1-(4-chloro-2-hydroxy-3-((1-(pyrimidin-2-yl)ethyl)sulfonyl)phenyl)-3-((R)-2-methylcyclopent-2-en-1-yl)urea], for which the results for the IC50 (at recombinant human CXCR2; in experiment [1]) were not above 10 nM and 25.1 to 2510 nM, respectively.

Take `CC1=CCC[C@H]1NC(=O)Nc1ccc(Cl)c(S(=O)(=O)[C@H]2C[C@H](N(C)C)C2)c1O` [Compound 193, 1-(4-chloro-3-((trans-3-(dimethylamino)cyclobutyl)sulfonyl)-2-hydroxyphenyl)-3-((R)-2-methylcyclopent-2-en-1-yl)urea]: the IC50 on recombinant human CXCR2 was not above 1 nM; in experiment [1], 25.1 to 2510 nM. On to `CC1=CCC[C@H]1NC(=O)Nc1ccc(Cl)c(S(=O)(=O)C2(CF)CCOCC2)c1O` [Compound 72, (R)-1-(4-chloro-3-((4-(fluoromethyl)tetra-hydro-2H-pyran-4-yl)sulfonyl)-2-hydroxyphenyl)-3-(2-methylcyclopent-2-en-1-yl)urea], for which the IC50 at recombinant human CXCR2 was not above 10 nM; in experiment [1], 25.1 to 2510 nM.

Take `COC[C@H](C)S(=O)(=O)c1c(Cl)ccc(NC(=O)N[C@@H]2CCC=C2C)c1O` [Compound 186, 1-(4-chloro-2-hydroxy-3-(((S)-1-methoxypropan-2-yl)sulfonyl)phenyl)-3-((R)-2-methylcyclopent-2-en-1-yl)urea]: the IC50 on recombinant human CXCR2 was not above 1 nM; in experiment [1] it was 25.1 to 2510 nM. On to `CC1(S(=O)(=O)c2c(Cl)ccc(NC(=O)N[C@H]3CCC=C3Cl)c2O)CCOCC1` [Compound 42, (S)-1-(4-chloro-2-hydroxy-3-((4-methyltetrahydro-2H-pyran-4-yl)sulfonyl)phenyl)-3-(2-chlorocyclopent-2-en-1-yl)urea], for which, in experiment [1], the IC50 was 25.1 to 2510 nM. In the case of `CC1=CCC[C@H]1NC(=O)Nc1ccc(Cl)c(S(=O)(=O)C2(C)CCCOC2)c1O` (stereo partly drawn) [Compound 66, 1-(4-chloro-2-hydroxy-3-((3-methyltetrahydro-2H-pyran-3-yl)sulfonyl)phenyl)-3-((R)-2-methylcyclopent-2-en-1-yl)urea], the IC50 at recombinant human CXCR2 is not above 10 nM; in experiment [1], 25.1 to 2510 nM. As for `CC1=CCC[C@H]1NC(=O)Nc1ccc(Cl)c(S(=O)(=O)C(C)(C)C2CCOC2)c1O` (stereo partly drawn) [Compound 59, 1-(4-chloro-2-hydroxy-3-((2-(tetrahydrofuran-3-yl)propan-2-yl)sulfonyl)phenyl)-3-((R)-2-methylcyclopent-2-en-1-yl)urea], the figures for the IC50 (on recombinant human CXCR2; in experiment [1]) were not above 1 nM and 25.1 to 2510 nM, respectively. As to `CC1=CCC[C@H]1NC(=O)Nc1ccc(Cl)c(S(=O)(=O)C(F)(F)CN(C)C)c1O` [Compound 136, (R)-1-(4-chloro-3-((2-(dimethylamino)-1,1-difluoroethyl)sulfonyl)-2-hydroxyphenyl)-3-(2-methylcyclopent-2-en-1-yl)urea], the IC50 was not above 10 nM at recombinant human CXCR2 and 25.1 to 2510 nM in experiment [1]. Taken in the same sequence, the figures for `CO[C@H]1C[C@@H](S(=O)(=O)c2c(Cl)ccc(NC(=O)N[C@@H]3CCC=C3C)c2O)C1` [Compound 146, 1-(4-chloro-2-hydroxy-3-((cis-3-methoxycyclobutyl)sulfonyl)phenyl)-3-((R)-2-methylcyclopent-2-en-1-yl)urea] were not above 1 nM and 25.1 to 2510 nM. Regarding `CC(C)(C)S(=O)(=O)c1c(C#N)ccc(NC(=O)N[C@@H]2CCC=C2Cl)c1O` [Compound 94, (R)-1-(3-(tert-butylsulfonyl)-4-cyano-2-hydroxyphenyl)-3-(2-chlorocyclopent-2-en-1-yl)urea], the IC50 is not above 1 nM at recombinant human CXCR2 and 25.1 to 2510 nM in experiment [1]. For the molecule `CC1(S(=O)(=O)c2c(Cl)ccc(NC(=O)N[C@@H]3CCC=C3Cl)c2O)CCOC1` (stereo partly drawn) [Compound 39, 1-(4-chloro-2-hydroxy-3-((3-methyltetrahydro-furan-3-yl)sulfonyl)phenyl)-3-((R)-2-chlorocyclopent-2-en-1-yl)urea], the results for the IC50 (at recombinant human CXCR2; in experiment [1]) were not above 1 nM and 25.1 to 2510 nM, respectively. `CC1=CCC[C@H]1NC(=O)Nc1ccc(Cl)c(S(=O)(=O)C(C)(C)C2CCOCC2)c1O` [Compound 60, (R)-1-(4-chloro-2-hydroxy-3-((2-(tetrahydro-2H-pyran-4-yl)propan-2-yl)sulfonyl)phenyl)-3-(2-methylcyclopent-2-en-1-yl)urea]: the IC50 at recombinant human CXCR2 is not above 1 nM; in experiment [1], 25.1 to 2510 nM. Take `CC1=CCCC1NC(=O)Nc1ccc(Cl)c(S(=O)(=O)C(C)(C)CF)c1O` (centres unmarked) [Compound 104, 1-(4-chloro-3-((1-fluoro-2-methylpropan-2-yl)sulfonyl)-2-hydroxyphenyl)-3-(2-methylcyclopent-2-en-1-yl)urea]: the IC50 at recombinant human CXCR2 was not above 10 nM; in experiment [1], 25.1 to 2510 nM.

With `CC1=CCC[C@H]1NC(=O)Nc1ccc(Cl)c(S(=O)(=O)C(C)(F)F)c1O` [Compound 194, (R)-1-(4-chloro-3-((1,1-difluoroethyl)sulfonyl)-2-hydroxyphenyl)-3-(2-methylcyclopent-2-en-1-yl)urea], the values for the IC50 (at recombinant human CXCR2; in experiment [1]) were not above 1 nM and 25.1 to 2510 nM, respectively.
